Measurements as given in PubChem BioAssay (NCI).
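At the GI50, growth is halved. At the TGI there is no net growth.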

What was measured:
Test in all cases: NCI anticancer screen, dose series, 384-well format
MDA-MB-435 melanoma = tested on: MDA-MB-435 melanoma
NCI-H522 lung = tested on: NCI-H522 lung
MCF7 breast = tested on: MCF7 breast
MOLT-4 leukemia = tested on: MOLT-4 leukemia
SNB-75 CNS = tested on: SNB-75 CNS
OVCAR-4 ovarian = tested on: OVCAR-4 ovarian
NCI/ADR-RES ovarian = tested on: NCI/ADR-RES ovarian
CAKI-1 renal = tested on: CAKI-1 renal
TK-10 renal = tested on: TK-10 renal
NCI-H23 lung = tested on: NCI-H23 lung
SK-MEL-5 melanoma = tested on: SK-MEL-5 melanoma
BT-549 breast = tested on: BT-549 breast
NCI-H322M lung = tested on: NCI-H322M lung

C[C@]12CCCN1CC1=NNC(=O)c3cc(F)cc4[nH]c2c1c34
GI50 (MDA-MB-435 melanoma): 42.4 µM
TGI (MDA-MB-435 melanoma): > 100 µM
GI50 (NCI-H522 lung): 16.8 µM
TGI (NCI-H522 lung): 44.6 µM
GI50 (MCF7 breast): 19.4 µM
TGI (MCF7 breast): 71.1 µM
GI50 (MOLT-4 leukemia): 2480 nM
TGI (MOLT-4 leukemia): 10.5 µM
GI50 (SNB-75 CNS): 23.3 µM
TGI (SNB-75 CNS): > 67.2 µM
GI50 (OVCAR-4 ovarian): 26.5 µM
TGI (OVCAR-4 ovarian): 79.4 µM
GI50 (NCI/ADR-RES ovarian): 20.9 µM
TGI (NCI/ADR-RES ovarian): 75 µM
GI50 (CAKI-1 renal): 18.1 µM
TGI (CAKI-1 renal): 69.4 µM
GI50 (TK-10 renal): 24.1 µM
TGI (TK-10 renal): 73.9 µM
GI50 (NCI-H23 lung): 15.4 µM
TGI (NCI-H23 lung): 35.5 µM
GI50 (SK-MEL-5 melanoma): 19.6 µM
TGI (SK-MEL-5 melanoma): 36.7 µM
GI50 (BT-549 breast): 16.4 µM
TGI (BT-549 breast): 42.2 µM
GI50 (NCI-H322M lung): 23.4 µM
TGI (NCI-H322M lung): 52.5 µM
